{
  "source": "patent US12295937B2",
  "about": "“Psychoactive medicines and their use for treating psychiatric and neurological conditions and disorders” (Transcend Therapeutics, Inc., priority 2021, dated 2025)",
  "key": {"[1]": {"target": "T1, 5HT2A receptor (Homo sapiens, UniProt P28223)", "T1 construct": "host or cells: PathHunter cell lines", "T1 sequence (P28223 whole entry)": "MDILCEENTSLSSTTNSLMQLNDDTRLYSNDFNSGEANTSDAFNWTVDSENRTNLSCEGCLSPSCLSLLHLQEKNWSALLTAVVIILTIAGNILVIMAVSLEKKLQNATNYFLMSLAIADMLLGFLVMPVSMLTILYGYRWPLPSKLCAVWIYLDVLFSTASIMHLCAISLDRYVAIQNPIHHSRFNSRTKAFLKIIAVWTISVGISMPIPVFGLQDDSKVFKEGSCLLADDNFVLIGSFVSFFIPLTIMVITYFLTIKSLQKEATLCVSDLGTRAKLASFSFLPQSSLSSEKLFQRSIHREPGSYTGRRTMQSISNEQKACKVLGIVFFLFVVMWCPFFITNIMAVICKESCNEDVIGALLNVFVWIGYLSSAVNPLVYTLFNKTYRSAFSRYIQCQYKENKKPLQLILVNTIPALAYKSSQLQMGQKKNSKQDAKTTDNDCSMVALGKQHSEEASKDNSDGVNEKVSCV", "assay": "GPCRmax screen, agonist mode, 5HT2A", "type": "cell-based", "settings": "1 or 10 mM"}, "[2]": {"target": "T2, 5HT2C receptor (Homo sapiens, UniProt P28335)", "T2 construct": "host or cells: PathHunter cell lines", "T2 sequence (P28335 33-458)": "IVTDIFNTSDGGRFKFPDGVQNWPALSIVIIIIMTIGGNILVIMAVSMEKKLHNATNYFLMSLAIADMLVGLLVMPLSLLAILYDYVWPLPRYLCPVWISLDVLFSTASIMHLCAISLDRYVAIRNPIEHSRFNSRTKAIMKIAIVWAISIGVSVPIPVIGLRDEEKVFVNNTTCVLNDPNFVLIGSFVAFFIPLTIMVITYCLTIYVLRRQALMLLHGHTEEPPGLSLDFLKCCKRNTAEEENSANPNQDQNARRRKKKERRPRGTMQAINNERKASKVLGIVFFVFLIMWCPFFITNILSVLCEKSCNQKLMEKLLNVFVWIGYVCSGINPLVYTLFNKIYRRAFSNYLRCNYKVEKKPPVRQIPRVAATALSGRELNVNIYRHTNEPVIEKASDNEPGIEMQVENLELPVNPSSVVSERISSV", "assay": "GPCRmax screen, agonist mode, 5HT2C", "type": "cell-based", "settings": "1 or 10 mM"}, "[3]": {"target": "T2, 5HT2C receptor", "assay": "GPCRmax screen, antagonist mode, 5HT2C", "type": "cell-based", "settings": "1 or 10 mM"}, "[4]": {"target": "T3, Human serotonin 5HT2B receptor (Homo sapiens, UniProt P41595)", "T3 sequence (P41595 whole entry)": "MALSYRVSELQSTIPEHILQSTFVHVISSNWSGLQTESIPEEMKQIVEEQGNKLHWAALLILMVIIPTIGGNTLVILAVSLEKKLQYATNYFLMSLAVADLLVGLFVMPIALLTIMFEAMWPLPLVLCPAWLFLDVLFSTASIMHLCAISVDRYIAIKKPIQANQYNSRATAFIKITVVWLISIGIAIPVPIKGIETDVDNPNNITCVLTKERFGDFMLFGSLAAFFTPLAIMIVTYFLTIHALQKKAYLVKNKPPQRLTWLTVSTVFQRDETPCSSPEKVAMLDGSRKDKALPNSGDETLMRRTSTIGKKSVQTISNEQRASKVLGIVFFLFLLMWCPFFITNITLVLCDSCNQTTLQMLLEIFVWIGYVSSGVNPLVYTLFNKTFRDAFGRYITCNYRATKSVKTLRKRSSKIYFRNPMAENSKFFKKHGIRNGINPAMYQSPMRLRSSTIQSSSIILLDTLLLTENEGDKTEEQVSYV", "assay": "Competitive radioligand binding to 5HT2B receptor membranes", "method": "Human serotonin 5HT2B receptor membrane preparations were divided into aliquots. On the day of the assay, membranes were diluted at 1:200 in incubation buffer. […] To each well was added 150 μL membrane preparation, 50 μL test compound, non-specific compound, or buffer alone, as well as 50 μL radioligand. The plate was incubated at 35° C. for 90 minutes with gentle agitation. […] For each concentration of drug, non-specific binding was subtracted from total binding to give specific binding. […] Ki was subsequently calculated using the ChengPrusoff equation."}, "[5]": {"system": "gene expression in amygdala, frontal cortex, hippocampus", "assay": "RNA-sequencing of rat brain areas after a single dose", "type": "in vivo"}, "[6]": {"system": "myelin basic protein (MBP)", "assay": "Myelin basic protein immunohistochemistry in amygdala", "type": "in vivo, rat", "settings": "10 mg/kg IP, 24 h", "method": "Immunohistochemistry: The in-life portion of the study was conducted at WuXi Apptec (Cranbury, NJ). Sectioning and staining of brains took place at Neuroscience Associates (NSA, Knoxville, TN). […] Brains were post-fixed in PFA before shipment to NSA for processing and staining. Hemisected brains were mounted, sectioned and stained using standard protocols with myelin-basic protein primary antibody (MBP SMI-99, 1:5000, Biolegend, San Diego, CA) and anti-mouse biotinylated secondary antibody (BA-2001, Vector Laboratories, Newark, CA). Slides were imaged using a Huron Digital Pathology TissueScope LE120 whole slide scanning system. 20× objective was used with a 0.4 μm/pixel resolution."}, "[7]": {"settings": "cited from earlier work"}, "[8]": {"settings": "7.5 mg/kg 30 minutes prior to extinction training (Young 2015); cited from earlier work"}, "[9]": {"target": "T3, Human serotonin 5HT2B receptor", "settings": "read-out: Ki (reported); reported values; cited from earlier work"}, "[10]": {"settings": "depending on the animal model and dosing conditions; cited from earlier work"}, "[11]": {"settings": "13 of 77 deaths, meta-analysis; cited from earlier work"}, "[12]": {"target": "T4, SERT (Rattus norvegicus, UniProt P31652)", "T4 sequence (P31652 whole entry, the tested form may be a part)": "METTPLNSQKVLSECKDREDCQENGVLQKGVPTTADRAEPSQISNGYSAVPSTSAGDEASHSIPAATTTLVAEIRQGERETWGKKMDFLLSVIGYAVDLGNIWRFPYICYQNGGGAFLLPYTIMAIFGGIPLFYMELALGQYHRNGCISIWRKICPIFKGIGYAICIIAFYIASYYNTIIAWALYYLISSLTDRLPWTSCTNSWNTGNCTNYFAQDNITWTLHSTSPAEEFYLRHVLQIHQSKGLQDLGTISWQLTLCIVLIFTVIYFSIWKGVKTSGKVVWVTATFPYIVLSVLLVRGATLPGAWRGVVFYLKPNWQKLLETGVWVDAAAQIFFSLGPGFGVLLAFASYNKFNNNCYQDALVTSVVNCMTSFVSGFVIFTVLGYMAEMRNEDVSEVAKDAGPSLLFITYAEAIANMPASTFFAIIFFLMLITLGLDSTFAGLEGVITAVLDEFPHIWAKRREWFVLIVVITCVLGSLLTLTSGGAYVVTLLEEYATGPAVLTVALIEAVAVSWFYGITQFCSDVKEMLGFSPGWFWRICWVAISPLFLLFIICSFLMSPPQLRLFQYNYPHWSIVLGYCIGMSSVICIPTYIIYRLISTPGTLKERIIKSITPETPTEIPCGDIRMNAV", "assay": "[3H]5-HT release from rat brain synaptosomes", "type": "biochemical", "design": "from tissue; synaptosomes for uptake and release", "method": "(§1) Test compounds and synaptosomes were prepared as described for uptake inhibition assays. Synaptosomes treated with [^3H]5-HT, [^3H]DA or [^3H]NE were loaded onto filter chambers containing GF/C filters and placed in a superfusion system. Oxygenated Krebs buffer was perfused through the chambers at a rate of 1.5 mL/minute at 35° C. using either an 8-channel or a 12-channel peristaltic pump. Trapped air bubbles were removed from the filters prior to collecting fractions to ensure an even flow over the synaptosomal bed. After a superfusion period of 45 minutes, 2 basal fractions were collected followed by 6 fractions following the addition of the test drug. […] Scintillation cocktail was added, and the filters counted to determine residual radioactivity. Drug-evoked release of neurotransmitter was calculated by subtracting the average of the two basal fractions (collected prior to the drug addition), from the four fractions collected in the presence of drug. The drug-evoked release was then expressed as a percentage of the basal release. Potassium-evoked release was calculated by subtracting the average of two fractions collected prior to the addition of high KCl buffer from that in the two fractions following addition of high KCl buffer. Potassium-stimulated release was calculated as a percentage of basal release. […]"}, "[13]": {"target": "T5, NET (Rattus norvegicus, UniProt Q63380)", "T5 sequence (Q63380 1-617)": "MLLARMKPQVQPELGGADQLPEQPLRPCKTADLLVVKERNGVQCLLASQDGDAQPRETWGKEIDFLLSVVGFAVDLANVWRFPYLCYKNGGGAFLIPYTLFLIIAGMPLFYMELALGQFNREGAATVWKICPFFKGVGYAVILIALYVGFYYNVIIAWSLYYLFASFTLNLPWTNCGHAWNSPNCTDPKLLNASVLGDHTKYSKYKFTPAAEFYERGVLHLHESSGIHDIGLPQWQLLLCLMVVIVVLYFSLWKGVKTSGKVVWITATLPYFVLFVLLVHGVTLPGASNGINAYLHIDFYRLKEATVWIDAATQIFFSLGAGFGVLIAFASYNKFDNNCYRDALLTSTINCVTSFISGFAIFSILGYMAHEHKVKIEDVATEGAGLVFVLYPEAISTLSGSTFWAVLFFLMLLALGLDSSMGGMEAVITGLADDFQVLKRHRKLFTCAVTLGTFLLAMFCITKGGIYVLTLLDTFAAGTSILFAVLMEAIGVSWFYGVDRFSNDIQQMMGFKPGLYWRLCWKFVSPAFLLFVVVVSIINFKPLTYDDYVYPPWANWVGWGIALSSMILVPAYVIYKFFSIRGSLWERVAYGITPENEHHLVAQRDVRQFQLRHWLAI", "assay": "[3H]NE release from rat brain synaptosomes", "type": "biochemical", "design": "from tissue; synaptosomes for uptake and release", "method": "as §1"}, "[14]": {"target": "T6, DAT (Rattus norvegicus, UniProt P23977)", "T6 sequence (P23977 whole entry)": "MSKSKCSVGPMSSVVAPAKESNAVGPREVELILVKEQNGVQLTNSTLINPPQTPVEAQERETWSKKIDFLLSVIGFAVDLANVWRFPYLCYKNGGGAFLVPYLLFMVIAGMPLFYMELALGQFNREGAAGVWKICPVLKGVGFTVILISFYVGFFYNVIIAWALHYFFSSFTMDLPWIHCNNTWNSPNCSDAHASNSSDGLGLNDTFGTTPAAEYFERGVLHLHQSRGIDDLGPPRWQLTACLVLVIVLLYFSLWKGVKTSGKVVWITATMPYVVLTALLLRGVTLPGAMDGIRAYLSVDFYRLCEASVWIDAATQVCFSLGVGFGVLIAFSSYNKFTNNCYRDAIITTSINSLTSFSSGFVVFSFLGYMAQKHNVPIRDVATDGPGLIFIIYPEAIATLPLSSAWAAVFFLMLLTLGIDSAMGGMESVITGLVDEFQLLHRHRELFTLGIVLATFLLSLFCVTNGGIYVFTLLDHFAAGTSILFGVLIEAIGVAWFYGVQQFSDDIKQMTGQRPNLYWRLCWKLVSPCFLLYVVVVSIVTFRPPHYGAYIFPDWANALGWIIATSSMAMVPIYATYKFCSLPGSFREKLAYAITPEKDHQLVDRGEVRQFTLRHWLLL", "assay": "[3H]DA release from rat brain synaptosomes", "type": "biochemical", "design": "from tissue; synaptosomes for uptake and release", "method": "as §1"}, "[15]": {"target": "T5, NET", "assay": "[3H]NE uptake inhibition in rat brain synaptosomes"}, "[16]": {"target": "T6, DAT", "assay": "[3H]DA uptake inhibition in rat brain synaptosomes"}, "[17]": {"target": "T4, SERT", "assay": "[3H]5-HT uptake inhibition in rat brain synaptosomes"}},
  "note": "Read-outs that look alike come from different tables or passages of the source.",
  "data": [
    {"smiles": "CNC(C)Cc1ccc2c(c1)OCO2", "note": "(racemic) [MDMA, 3,4-Methylenedioxymethamphetamine]", "values": [
      {"measurement": "Agonist % activity", "setting": "[1]", "result": 27.5, "unit": "%"},
      {"measurement": "Agonist % activity", "setting": "[2]", "result": 28.0, "unit": "%"},
      {"measurement": "Antagonist % inhibition", "setting": "[3]", "result": 52.2, "unit": "%"},
      {"measurement": "Times greater affinity for the 5HT2B receptor compared with methylone", "setting": "[4]", "result": 7.5, "unit": "times"},
      {"measurement": "Additional genes significantly regulated by MDMA only", "setting": "[5]; amygdala", "result": 1313, "unit": "genes"},
      {"measurement": "Genes downregulated by MDMA only", "setting": "[5]; amygdala", "result": 774, "unit": "genes"},
      {"measurement": "Genes regulated by MDMA that are also regulated by methylone", "setting": "[5]; amygdala", "result": 7, "unit": "%"},
      {"measurement": "Genes upregulated by MDMA only", "setting": "[5]; amygdala", "result": 539, "unit": "genes"},
      {"measurement": "Genes regulated by both treatments", "setting": "[5]; frontal cortex", "result": 154, "unit": "genes"},
      {"measurement": "More genes regulated than methylone", "setting": "[5]; frontal cortex", "result": "~72", "unit": "%"},
      {"measurement": "Genes significantly regulated", "setting": "[5]; frontal cortex, 10 mg/kg IP (Example 27)", "result": 825, "unit": "genes"},
      {"measurement": "MBP in basolateral and central nuclei of the amygdala vs. vehicle", "setting": "[6]", "result": "significant reduction in MBP"},
      {"measurement": "Reduction in immobility in the FST", "setting": "[7]; 5 mg/kg, Flinders Sensitive Line rats", "result": 45, "unit": "%"},
      {"measurement": "Reduction in immobility in the FST", "setting": "[7]; 5 mg/kg, Sprague Dawley rats (Majumder 2011)", "result": 45, "unit": "%"},
      {"measurement": "Reduction in immobility in the FST", "setting": "[7]; 10 mg/kg, Flinders Sensitive Line rats", "result": 93, "unit": "%"},
      {"measurement": "Reduction in immobility in the FST", "setting": "[7]; 10 mg/kg, Sprague Dawley rats (Majumder 2011)", "result": 78, "unit": "%"},
      {"measurement": "Reduced freezing vs. saline (extinction recall)", "setting": "[8]", "result": 35, "unit": "%"},
      {"measurement": "Ki", "setting": "[9]", "result": 500, "unit": "nM"},
      {"measurement": "half-life", "setting": "[10]", "result": "5 to 7", "unit": "h"},
      {"measurement": "Blood concentrations in deaths attributable to MDMA alone", "setting": "[11]", "result": "478 to 53900", "unit": "ng/mL"},
      {"measurement": "EC50", "setting": "[12]", "result": 160, "unit": "nM"},
      {"measurement": "EC50", "setting": "[13]", "result": 490, "unit": "nM"},
      {"measurement": "EC50", "setting": "[14]", "result": 1420, "unit": "nM"},
      {"measurement": "IC50", "setting": "[15]", "result": 120, "unit": "nM"},
      {"measurement": "IC50", "setting": "[16]", "result": 2500, "unit": "nM"},
      {"measurement": "IC50", "setting": "[17]", "result": 1800, "unit": "nM"}
    ]}
  ]
}
